{"source": "patent US9707305B2", "about": "“Formulas for diagnosing and treating hormone-dependent cancers and cancers of the organs responsible for steroid hormone synthesis” (Commissariat à l'énergie atomique et aux énergies …, priority 2011, dated 2017)", "assay": "Biodistribution of the nano-emulsion of Example 1.1 in male mice (Tables 15 to 21)", "type": "in vivo", "conditions": "FVB male mouse", "description": "In the following examples, the radioactivity was counted with the TRiCarb Counter (Ref: Packard, Liquid Scintillation Analyzers; Models 2200CA).\nFluobeam 700 (Fluoptics) is the apparatus with which the whole of the organs from the biodistribution were analyzed in fluorescence as well as the one with which the biodistribution kinetics of the nano-emulsions were established in vivo. This imaging system allows viewing of the fluorescence in spectral bands from 700 to 850 nm for a 650 nm excitation. The apparatus consists of an electric case containing the laser of class 3B, its power supply and an optical head containing the CCD camera. […]"}
{"smiles": "CCCCCCCCCCCCCCCCO[C@H]1CC[C@@]2(C)C(=CC[C@H]3[C@@H]4CC[C@H]([C@H](C)CCCC(C)C)[C@@]4(C)CC[C@@H]32)C1", "note": "[[3H]CHE, cholesteryl hexadecylether]", "values": [{"measurement": "tracer in Heart", "setting": "2 h", "value": "9.84 percentage of the dose injected per gram of tissue"}, {"measurement": "tracer in Heart", "setting": "4 h", "value": "7.57 percentage of the dose injected per gram of tissue"}, {"measurement": "tracer in Heart", "setting": "6 h", "value": "8.52 percentage of the dose injected per gram of tissue"}, {"measurement": "tracer in Heart", "setting": "16 h", "value": "8.50 percentage of the dose injected per gram of tissue"}, {"measurement": "tracer in Heart", "setting": "24 h", "value": "5.76 percentage of the dose injected per gram of tissue"}, {"measurement": "tracer in Heart", "setting": "48 h", "value": "6.05 percentage of the dose injected per gram of tissue"}, {"measurement": "tracer in Heart", "setting": "72 h", "value": "7.83 percentage of the dose injected per gram of tissue"}, {"measurement": "tracer in Intestine", "setting": "2 h", "value": "2.44 percentage of the dose injected per gram of tissue"}, {"measurement": "tracer in Intestine", "setting": "4 h", "value": "1.98 percentage of the dose injected per gram of tissue"}, {"measurement": "tracer in Intestine", "setting": "6 h", "value": "2.549 percentage of the dose injected per gram of tissue"}, {"measurement": "tracer in Intestine", "setting": "16 h", "value": "5.19 percentage of the dose injected per gram of tissue"}, {"measurement": "tracer in Intestine", "setting": "24 h", "value": "3.41 percentage of the dose injected per gram of tissue"}, {"measurement": "tracer in Intestine", "setting": "48 h", "value": "3.50 percentage of the dose injected per gram of tissue"}, {"measurement": "tracer in Intestine", "setting": "72 h", "value": "3.47 percentage of the dose injected per gram of tissue"}, {"measurement": "tracer in Kidney", "setting": "2 h", "value": "5.29 percentage of the dose injected per gram of tissue"}, {"measurement": "tracer in Kidney", "setting": "4 h", "value": "3.14 percentage of the dose injected per gram of tissue"}, {"measurement": "tracer in Kidney", "setting": "6 h", "value": "3.336 percentage of the dose injected per gram of tissue"}, {"measurement": "tracer in Kidney", "setting": "16 h", "value": "2.40 percentage of the dose injected per gram of tissue"}, {"measurement": "tracer in Kidney", "setting": "24 h", "value": "1.80 percentage of the dose injected per gram of tissue"}, {"measurement": "tracer in Kidney", "setting": "48 h", "value": "1.77 percentage of the dose injected per gram of tissue"}, {"measurement": "tracer in Kidney", "setting": "72 h", "value": "1.82 percentage of the dose injected per gram of tissue"}, {"measurement": "tracer in Liver", "setting": "2 h", "value": "22.67 percentage of the dose injected per gram of tissue"}, {"measurement": "tracer in Liver", "setting": "4 h", "value": "17.25 percentage of the dose injected per gram of tissue"}, {"measurement": "tracer in Liver", "setting": "6 h", "value": "22.609 percentage of the dose injected per gram of tissue"}, {"measurement": "tracer in Liver", "setting": "16 h", "value": "40.91 percentage of the dose injected per gram of tissue"}, {"measurement": "tracer in Liver", "setting": "24 h", "value": "30.93 percentage of the dose injected per gram of tissue"}, {"measurement": "tracer in Liver", "setting": "48 h", "value": "24.53 percentage of the dose injected per gram of tissue"}, {"measurement": "tracer in Liver", "setting": "72 h", "value": "24.97 percentage of the dose injected per gram of tissue"}, {"measurement": "tracer in Lung", "setting": "2 h", "value": "5.08 percentage of the dose injected per gram of tissue"}, {"measurement": "tracer in Lung", "setting": "4 h", "value": "2.98 percentage of the dose injected per gram of tissue"}, {"measurement": "tracer in Lung", "setting": "6 h", "value": "3.771 percentage of the dose injected per gram of tissue"}, {"measurement": "tracer in Lung", "setting": "16 h", "value": "5.31 percentage of the dose injected per gram of tissue"}, {"measurement": "tracer in Lung", "setting": "24 h", "value": "2.88 percentage of the dose injected per gram of tissue"}, {"measurement": "tracer in Lung", "setting": "48 h", "value": "3.02 percentage of the dose injected per gram of tissue"}, {"measurement": "tracer in Lung", "setting": "72 h", "value": "3.04 percentage of the dose injected per gram of tissue"}, {"measurement": "tracer in Muscle", "setting": "2 h", "value": "0.99 percentage of the dose injected per gram of tissue"}, {"measurement": "tracer in Muscle", "setting": "4 h", "value": "0.56 percentage of the dose injected per gram of tissue"}, {"measurement": "tracer in Muscle", "setting": "6 h", "value": "0.77 percentage of the dose injected per gram of tissue"}, {"measurement": "tracer in Muscle", "setting": "16 h", "value": "0.97 percentage of the dose injected per gram of tissue"}, {"measurement": "tracer in Muscle", "setting": "24 h", "value": "0.38 percentage of the dose injected per gram of tissue"}, {"measurement": "tracer in Muscle", "setting": "48 h", "value": "0.63 percentage of the dose injected per gram of tissue"}, {"measurement": "tracer in Muscle", "setting": "72 h", "value": "0.49 percentage of the dose injected per gram of tissue"}, {"measurement": "tracer in Ovary", "setting": "Ovary, 24 h", "value": "1.71 percentage of the dose injected per gram of tissue"}, {"measurement": "tracer in Pancreas", "setting": "2 h", "value": "1.64 percentage of the dose injected per gram of tissue"}, {"measurement": "tracer in Pancreas", "setting": "4 h", "value": "1.50 percentage of the dose injected per gram of tissue"}, {"measurement": "tracer in Pancreas", "setting": "6 h", "value": "1.67 percentage of the dose injected per gram of tissue"}, {"measurement": "tracer in Pancreas", "setting": "16 h", "value": "1.92 percentage of the dose injected per gram of tissue"}, {"measurement": "tracer in Pancreas", "setting": "24 h", "value": "1.31 percentage of the dose injected per gram of tissue"}, {"measurement": "tracer in Pancreas", "setting": "48 h", "value": "0.99 percentage of the dose injected per gram of tissue"}, {"measurement": "tracer in Pancreas", "setting": "72 h", "value": "1.12 percentage of the dose injected per gram of tissue"}, {"measurement": "tracer in Salivary gland", "setting": "2 h", "value": "1.53 percentage of the dose injected per gram of tissue"}, {"measurement": "tracer in Salivary gland", "setting": "4 h", "value": "1.26 percentage of the dose injected per gram of tissue"}, {"measurement": "tracer in Salivary gland", "setting": "6 h", "value": "2.10 percentage of the dose injected per gram of tissue"}, {"measurement": "tracer in Salivary gland", "setting": "16 h", "value": "2.68 percentage of the dose injected per gram of tissue"}, {"measurement": "tracer in Salivary gland", "setting": "24 h", "value": "1.57 percentage of the dose injected per gram of tissue"}, {"measurement": "tracer in Salivary gland", "setting": "48 h", "value": "2.07 percentage of the dose injected per gram of tissue"}, {"measurement": "tracer in Salivary gland", "setting": "72 h", "value": "2.36 percentage of the dose injected per gram of tissue"}, {"measurement": "tracer in Seminal gland", "setting": "4 h", "value": "0.50 percentage of the dose injected per gram of tissue"}, {"measurement": "tracer in Seminal gland", "setting": "6 h", "value": "0.54 percentage of the dose injected per gram of tissue"}, {"measurement": "tracer in Seminal gland", "setting": "16 h", "value": "0.64 percentage of the dose injected per gram of tissue"}, {"measurement": "tracer in Seminal gland", "setting": "24 h", "value": "0.35 percentage of the dose injected per gram of tissue"}, {"measurement": "tracer in Seminal gland", "setting": "48 h", "value": "0.35 percentage of the dose injected per gram of tissue"}, {"measurement": "tracer in Seminal gland", "setting": "72 h", "value": "0.58 percentage of the dose injected per gram of tissue"}, {"measurement": "tracer in Seminal glands", "setting": "Seminal glands, 2 h", "value": "0.79 percentage of the dose injected per gram of tissue"}, {"measurement": "tracer in Spleen", "setting": "2 h", "value": "7.15 percentage of the dose injected per gram of tissue"}, {"measurement": "tracer in Spleen", "setting": "4 h", "value": "5.31 percentage of the dose injected per gram of tissue"}, {"measurement": "tracer in Spleen", "setting": "6 h", "value": "6.453 percentage of the dose injected per gram of tissue"}, {"measurement": "tracer in Spleen", "setting": "16 h", "value": "9.19 percentage of the dose injected per gram of tissue"}, {"measurement": "tracer in Spleen", "setting": "24 h", "value": "6.65 percentage of the dose injected per gram of tissue"}, {"measurement": "tracer in Spleen", "setting": "48 h", "value": "11.18 percentage of the dose injected per gram of tissue"}, {"measurement": "tracer in Spleen", "setting": "72 h", "value": "6.40 percentage of the dose injected per gram of tissue"}, {"measurement": "tracer in Testicle", "setting": "2 h", "value": "1.36 percentage of the dose injected per gram of tissue"}, {"measurement": "tracer in Testicle", "setting": "4 h", "value": "1.35 percentage of the dose injected per gram of tissue"}, {"measurement": "tracer in Testicle", "setting": "6 h", "value": "2.000 percentage of the dose injected per gram of tissue"}, {"measurement": "tracer in Testicle", "setting": "16 h", "value": "2.95 percentage of the dose injected per gram of tissue"}, {"measurement": "tracer in Testicle", "setting": "48 h", "value": "2.97 percentage of the dose injected per gram of tissue"}, {"measurement": "tracer in Testicle", "setting": "72 h", "value": "4.34 percentage of the dose injected per gram of tissue"}]}
